Test: Inhibition of gamma secretase assessed as reduction in Abeta42 production

Row | Compound | IC50 [µM]
1 | COc1nc(/C=C/c2nc3n(n2)CCC[C@@H]3c2cc(F)c(F)c(F)c2)ccc1-n1cnc(C)c1 | 0.022
2 | CC(C)CC(C(=O)O)c1cc(Oc2cc(F)cc(F)c2)cc(-c2ccc(C(F)(F)F)cc2)c1 (stereo not drawn) | 0.77
3 | COc1nc(/C=C/c2nc3n(n2)CCC[C@H]3c2ccccc2C(F)(F)F)ccc1-n1cnc(C)c1 [E-2212] | 0.017
4 | Cc1cn(-c2ccc(/C=C3\OC(C)(C)CN([C@H](c4cc(F)c(F)c(F)c4)[C@@H](C)O)C3=O)cc2F)cn1 | 0.041
5 | Cc1cn(-c2ccc(Nc3ncc4c(n3)C(c3ccccc3)CCC4)cc2F)cn1 (stereo not drawn) | 0.13
6 | COc1cc(/C=C2\OC(C)(C)CN([C@H](c3cc(F)c(F)c(F)c3)[C@@H](C)O)C2=O)ccc1-n1cnc(C)c1 | 0.005
7 | COc1cc(Nc2c(OC)cnn(C(C)c3ccccc3)c2=O)ccc1-n1cnc(C)c1 (stereo not drawn) | 3.1
8 | COc1cc(Nc2nc3n(n2)CC[C@@](C)(O)C[C@@H]3c2ccc(F)cc2)ccc1-n1cnc(Cl)c1 | 0.002
9 | COc1cc(C(=O)c2c(OC)cnn(C(C)c3ccccc3)c2=O)ccc1-n1cnc(C)c1 (stereo not drawn) | 2.5
10 | COc1cc(NC(=O)NC(C)Cc2ccc(F)cc2)ccc1-c1ccnc(C)c1 (stereo not drawn) | 0.131
11 | CC(C)CC(C(=O)O)c1cc(/C=C/c2cc(F)cc(F)c2)cc(-c2ccc(C(F)(F)F)cc2)c1 (stereo not drawn) | 0.45
12 | COc1cc(Nc2cccc3c2nc(-c2ccc(F)cc2)n3C)ccc1-n1cnc(C)c1 | 0.021
13 | COc1cc(/C=C2\OC(C)(C)CN([C@@H](CO)c3ccc(F)cc3)C2=O)ccc1-n1cnc(C)c1 | 0.016
14 | CC(C)CC(C(=O)O)c1cc(-c2ccc(C(F)(F)F)cc2)cc(-c2cc(C(F)(F)F)cc(C(F)(F)F)c2)c1 (racemic) | 0.08
15 | COc1nc(/C=C/c2nc3n(n2)CCC[C@@H]3c2ccc(F)cc2)ccc1-n1cnc(C)c1 | 0.037
16 | COc1cc(Nc2nc3c(c(COC4CCCC4)n2)COCC3)ccc1-n1cnc(C)c1 | 0.022
17 | COCc1cc(F)ccc1[C@H]1CCCn2nc(/C=C/c3ccc(-n4cnc(C)c4)c(OC)c3)nc21 | 0.012
18 | COc1cc(/C=C/c2nc3n(n2)CCC[C@H]3c2ccccc2C(F)(F)F)ccc1-n1cnc(C)c1 | 0.011
19 | COc1cc(-c2cn(C(F)(F)c3ccc(C(F)(F)F)cc3)nn2)ccc1-n1cnc(C)c1 | 2.25
20 | COc1cc(/C=C2\CCCN([C@H](c3cc(F)c(F)c(F)c3)[C@@H](C)O)C2=O)ccc1-n1cnc(C)n1 | 0.06
21 | Cc1cn(-c2ccc(Nc3ncn(Cc4cccc(Cl)c4)n3)cc2C#N)cn1 | 0.22

Row | Compound | IC50 [µM]
22 | COc1cc(Nc2nc(C)cc(Oc3ccc(Cl)cc3)n2)ccc1-n1cnc(C)c1 | 0.38
23 | COc1cc(/C=C2\CCCN(Cc3cccc(F)c3)C2=O)ccc1-n1cnc(C)c1 | 0.2
24 | CC(C)CC(C(=O)O)c1cc(/C=C/c2ccc(-c3ccccc3)cc2)cc(-c2ccc(Cl)c(C(F)(F)F)c2)c1 (stereo not drawn) | 0.15
25 | COc1cc(NC(=O)C(C)c2cccc(F)n2)ccc1-c1ccnc(C)c1 (stereo not drawn) | 0.557
26 | COc1cc(/C=C2\CC[C@H]3CCC[C@@H](c4cc(F)c(F)c(F)c4)N3C2=O)ccc1-n1cnc(C)c1 | 0.033
27 | COc1cc(Nc2nc(C)cc(Nc3ccc(Cl)cc3)n2)ccc1-n1cnc(C)c1 | 0.07
28 | COc1cc(-c2cn(C3CCc4c(F)cccc4N(CC(F)(F)F)C3=O)nn2)ccc1Oc1cccnc1 (stereo not drawn) | 0.537
29 | COc1cc(C)c(Cc2nc(-c3ccc(-n4cnc(C)c4)c(OC)n3)n[nH]2)cc1C(C)C | 0.011
30 | COc1nc(-c2nc3n(n2)CCC[C@@H]3c2cc(N(CC3CC3)CC3CC3)ccc2Cl)ccc1-n1cnc(C)c1 | 0.004
31 | COCCN(Cc1cccc2ccccc12)C(=O)/C=C/c1ccc(-n2cnc(C)c2)c(OC)c1 | 0.06
32 | COc1cc(Nc2cccc3c2nc(-c2ccc(F)cc2)n3C(C)C)ccc1-c1ccnc(C)c1 | 0.039
33 | COc1cc(Nc2ncc3c(n2)C(c2ccccc2)CCC3)ccc1-n1cnc(C)c1 (stereo not drawn) | 0.84
34 | CC(C)CCN1CC(c2cc(-c3ccc(C(F)(F)F)cc3)cc(C(CC(C)C)C(=O)O)c2)CCC1C(F)(F)F (stereo not drawn) | 0.37
35 | COc1cc(C(O)c2c(OC)cnn([C@@H](C)c3ccc(F)cc3)c2=O)ccc1-n1cnc(C)c1 (stereo partly drawn) | 7.1
36 | COc1cc(Nc2nc3n(n2)CCCC[C@@H]3c2ccc(OCC(F)(F)F)cc2)ccc1-n1cnc(Cl)c1 | 0.01
37 | COc1cc(NC(=O)C(C)c2ccc3c(c2)[nH]c2ccc(Cl)cc23)ccc1-c1ccnc(C)c1 (stereo not drawn) | 0.108
38 | CC(C)CC(C(=O)O)c1cc(CCc2ccc(-c3ccccc3)cc2)cc(-c2ccc(Cl)c(C(F)(F)F)c2)c1 (stereo not drawn) | 0.21
39 | COc1cc(Nc2ccnn(Cc3ccc(F)cc3)c2=O)ccc1-n1cnc(C)c1 | 0.345
40 | COc1cc(-c2cn(C3CCc4c(F)cccc4N(CC(F)(F)F)C3=O)nn2)ccc1C#Cc1ccnc(C)c1 (stereo not drawn) | 0.083
41 | COc1cc(Nc2ncc3c(n2)C(c2ccccc2)CCC3)ccc1-c1cnn(C)c1 (stereo not drawn) | 0.24
42 | COc1cc(-c2cn(CC(=O)N(CC(F)(F)F)c3ccc(F)c(Cl)c3)nn2)ccc1-n1cnc(C)c1 | 0.084

Row | Compound | IC50 [µM]
43 | COc1ccccc1NC(=O)Nc1ccc(-c2ccnc(C)c2)c(OC)c1 | 3.3
44 | CC(C(=O)O)c1ccc(-c2ccccc2)c(F)c1 (racemic) [FLURBIPROFEN] | 300
45 | COc1cc(/C=C/c2nc3n(n2)CCC[C@@H]3c2ccccc2)ccc1-n1cnc(C)c1 | 0.011
46 | COc1ccc2c(c1)c(CC(=O)O)c(C)n2C(=O)c1ccc(Cl)cc1 [INDOMETHACIN] | 25
47 | CC(C)CCN(Cc1ccc(C(F)(F)F)cc1)Cc1cc(-c2ccc(C(F)(F)F)cc2)cc(C(CC(C)C)C(=O)O)c1 (stereo not drawn) | 0.22
48 | COc1cc(Nc2nc(Cc3ccc(Cl)cc3)c(CO)s2)ccc1-n1cnc(C)c1 | 0.34
49 | CC(C)CC(C(=O)O)c1cc(-c2ccc(C(F)(F)F)cc2)cc(N2CCC(C(F)(F)F)CC2)c1 (stereo not drawn) | 0.44
50 | COc1cc(C)c(Nc2nc(-c3ccc(-n4cnc(C)c4)c(OC)n3)n[nH]2)cc1C(C)C | 0.008
51 | CC(C)CC(C(=O)O)c1cc(-c2ccc(C(F)(F)F)cc2)cc(N(C)c2cc(F)cc(F)c2)c1 (stereo not drawn) | 0.45
52 | COc1cc(C2CC23CCCN(C(C)c2ccc(F)cc2)C3=O)ccc1-n1cnc(C)c1 (stereo not drawn) | > 0.2
53 | COc1cc(/C=C/c2nc3n(n2)CCC[C@@H]3c2cc(F)c(F)c(F)c2)ccc1-n1cnc(C)c1 | 0.014
54 | CC(C)CC(C(=O)O)c1cc(-c2ccc(C(F)(F)F)cc2)cc(C2CCC(C(F)(F)F)N(c3cc(F)cc(C(F)(F)F)c3)C2)c1 (stereo not drawn) | 0.31
55 | COc1cc(C2CN(C(C)=O)CC3(CCCN(C(C)c4ccc(F)cc4)C3=O)C2)ccc1-n1cnc(C)c1 (stereo not drawn) | > 0.2
56 | COc1cc(-c2cn(C3CCc4c(F)cccc4N(CC(F)(F)F)C3=O)nn2)ccc1Nc1cccnc1 (stereo not drawn) | 0.226
57 | COc1cc(/C=C/c2nc3n(n2)CCC[C@@H]3c2ccc(C(F)(F)F)cc2)ccc1-n1cnc(C)c1 | 0.031
58 | COc1cc(NC(=O)Nc2cc(Cl)ccc2C)ccc1-c1ccnc(C)c1 | 0.67
59 | COc1cc(/C=C/C(=O)NC2CCc3ccccc3C2)ccc1-n1cnc(C)c1 (stereo not drawn) | 0.06
60 | COc1cc(NC(=O)C(C)N2CCc3ccc(Br)cc3C2)ccc1-c1ccnc(C)c1 (stereo not drawn) | 0.181
61 | CC(C)c1cc(C(C)C)c(S(=O)(=O)n2c3ccccc3c3ccc(OCC(=O)O)cc32)c(C(C)C)c1 | 7.5
62 | CC(C)CC(C(=O)O)c1cc(-c2ccc(C(F)(F)F)cc2)cc(C2CCCC(C(F)(F)F)N2Cc2ccc(C(F)(F)F)cc2)c1 (stereo not drawn) | 0.31
63 | COc1cc(/C=C/c2nc3n(n2)CCC[C@@H]3c2ccc(F)cc2)ccc1-n1cnc(C)c1 | 0.014
